Measurements from the supplement of paper PMC10307832.

Legend:
Crizotinib = compound: C[C@@H](Oc1cc(-c2cnn(C3CCNCC3)c2)cnc1N)c1c(Cl)ccc(F)c1Cl [Crizotinib]; assay: relative viability (nuclei count vs DMSO), 5 days (fraction); higher = more cells survive
In short: (§1)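 Only plates meeting two conditions passed: control CV below 25% and at least one doubling. Lung cancer cell lines, kept overnight at 37 °C in 1536-well plates, were pinned with five library-drug doses (not always all listed) √10 apart on vehicle-anchored plates and grown 5 days without medium change. A one-step fix, permeabilisation and Hoechst stain preceded 4× imaging and MetaXpress nuclear counting. Viability equals treated-well nuclei divided by vehicle-well nuclei, as the median over plates.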

Carfilzomib = compound: CC(C)C[C@H](NC(=O)[C@H](CCc1ccccc1)NC(=O)CN1CCOCC1)C(=O)N[C@@H](Cc1ccccc1)C(=O)N[C@@H](CC(C)C)C(=O)[C@@]1(C)CO1 [Carfilzomib]; assay: as above
In short: as §1

Cell Line | relative viability (Crizotinib; 0.01 µM) | relative viability (Crizotinib; 0.03162 µM) | relative viability (Crizotinib; 0.1 µM) | relative viability (Crizotinib; 0.3162 µM) | relative viability (Crizotinib; 1 µM) | relative viability (Crizotinib; 1 µM, anchor plate) | relative viability (Carfilzomib; 0.001 µM) | relative viability (Carfilzomib; 0.003162 µM) | relative viability (Carfilzomib; 0.01 µM) | relative viability (Carfilzomib; 0.03162 µM) | relative viability (Carfilzomib; 0.1 µM)
201T | 0.95 | 1 | 0.95 | 1.03 | 1 | 1.01 | 0.957 | 1.01 | 1.01 | 1.04 | 0.849
A549 | 0.963 | 1.03 | 0.948 | 1.04 | 0.987 | 0.755 | 0.967 | 1.03 | 0.954 | 0.525 | 0.043
A-427 | 0.965 | 1.03 | 1.03 |  | 1.01 | 0.906 | 0.936 | 1.15 | 0.957 | 0.479 | 0.134
ABC-1 | 0.845 | 0.885 | 0.995 | 0.878 | 0.982 | 1.18 | 0.92 | 0.75 | 0.39 | 0.221 | 0.291
BEN | 0.867 | 0.974 | 0.886 | 0.807 | 1.02 | 0.86 | 0.902 | 1.09 | 0.944 | 0.843 | 0.433
CAL-12T | 0.917 | 0.973 | 0.974 | 0.837 | 0.981 | 0.683 | 0.933 | 1.19 | 1.1 | 0.736 | 0.138
COR-L23 | 1.01 | 1.04 | 0.963 | 0.978 | 0.885 | 0.623 | 1.06 | 1.13 | 0.846 | 0.0978 | 0.0691
COR-L 105 | 0.844 | 0.938 | 0.901 | 0.847 | 0.932 | 0.826 | 1.06 | 0.931 | 0.962 | 0.318 | 0.26
Calu-6 | 0.986 | 1.03 |  | 0.957 | 1.01 | 0.768 | 0.992 | 1.09 | 0.92 | 0.306 | 0.11
ChaGo-K-1 | 0.977 |  | 0.953 | 0.769 | 0.976 | 1.11 | 0.884 | 1.05 | 1.01 | 0.864 | 0.304
EBC-1 | 0.965 | 1.05 | 0.976 | 0.17 | 0.199 | 0.192 | 1.01 | 1.09 | 0.642 | 0.11 | 0.103
EKVX | 0.969 | 0.941 | 0.933 | 0.847 | 0.982 | 0.967 | 0.913 | 1 | 1.17 | 0.76 | 0.369
EMC-BAC-2 | 1.08 | 0.96 | 0.98 |  | 0.923 | 0.767 | 0.957 | 1.18 | 1.04 | 0.972 | 0.432
EPLC-272H | 0.883 | 0.932 | 0.937 | 0.778 | 0.955 | 0.912 | 0.845 | 1.22 | 0.834 | 0.242 | 0.0648
H3255 | 0.963 | 0.993 | 0.991 | 0.911 | 1.03 | 0.934 | 0.973 | 1.09 | 1.11 | 0.718 | 0.373
HARA | 0.796 |  | 1.03 | 0.779 | 1.02 | 1.04 | 0.996 | 1.09 | 1.2 | 0.427 | 0.126

Cell Line | relative viability (Crizotinib; 0.01 µM) | relative viability (Crizotinib; 0.03162 µM) | relative viability (Crizotinib; 0.1 µM) | relative viability (Crizotinib; 0.3162 µM) | relative viability (Crizotinib; 1 µM) | relative viability (Crizotinib; 1 µM, anchor plate) | relative viability (Carfilzomib; 0.001 µM) | relative viability (Carfilzomib; 0.003162 µM) | relative viability (Carfilzomib; 0.01 µM) | relative viability (Carfilzomib; 0.03162 µM) | relative viability (Carfilzomib; 0.1 µM)
HCC-15 | 0.917 | 1.04 | 1.01 |  | 0.974 | 0.813 | 0.954 | 1.07 | 1.07 | 0.709 | 0.177
HCC-44 | 0.967 | 0.974 | 1.06 | 0.879 | 0.944 | 0.785 | 0.988 | 0.996 | 1.05 | 0.819 | 0.317
HCC-78 | 0.916 | 0.993 | 1.01 | 0.476 | 0.778 | 0.348 | 0.839 | 1.09 | 1.07 | 0.662 | 0.267
HCC-366 | 0.952 | 1.01 |  |  | 1.07 | 0.466 | 0.992 | 1.02 | 1.01 | 1.05 | 0.0704
HCC-827 | 0.985 | 1.03 | 1.03 | 0.901 | 1.03 |  | 1.05 | 1.05 | 1.09 | 0.97 | 0.647
HOP-62 | 0.96 | 1.01 | 1.03 | 0.874 | 1.04 | 1 | 1.04 | 1.09 | 0.92 | 0.251 | 0.106
IA-LM | 0.972 | 0.959 | 1.03 | 0.872 | 0.888 | 0.79 | 0.884 | 0.879 | 0.94 | 0.107 | 0.0275
LC-2-ad | 0.921 | 1.02 | 1.02 |  |  | 0.458 | 1.04 | 1.16 | 1.03 | 0.473 | 0.226
LCLC-97TM1 | 0.902 | 1.1 | 1 | 0.727 | 0.993 | 0.338 | 0.907 | 1.07 | 0.999 | 0.368 | 0.0609
LCLC-103H | 0.906 | 1.02 | 1.07 | 0.991 | 1 | 1.01 | 0.923 | 0.974 | 0.998 | 0.984 | 0.459
LK-2 | 0.972 | 0.87 | 0.943 | 1.03 |  |  | 0.937 | 1.31 | 0.96 | 0.205 | 0.201
LOU-NH91 | 0.945 | 0.905 | 1.09 | 0.949 | 0.985 | 0.729 | 0.962 | 1.08 | 0.745 | 0.314 | 0.309
LU99A | 0.894 | 1.03 |  | 0.795 | 0.969 | 0.547 | 0.991 | 1.06 | 0.982 | 0.893 | 0.433
LXF-289 | 0.967 | 1.03 | 1.08 | 0.844 | 1.01 | 0.809 | 0.992 | 1.04 | 1.02 | 0.371 | 0.104
NCI-H23 | 0.808 | 1.1 | 1.04 |  | 0.904 | 0.546 | 0.847 | 1.14 | 0.856 | 0.172 | 0.161
NCI-H322M | 0.778 |  | 1 | 0.922 | 0.955 | 0.93 | 0.911 | 1.07 | 1.04 | 0.961 | 0.376
